Results taken from US20080293683A1, “Hormone Replacement Therapy” (University of Kansas Medical Center, priority 2007, published 2008).
Where two headings read alike, the source gives them in different places.

Experiments:
postmenopausal person = conditions: singular use; cited from earlier work
recombinant human ERα = molecular target: T1, recombinant human ERα (Homo sapiens, UniProt P03372); assay: ERα binding assay: competition of [3H]E2 binding by competing estrogens; conditions: for binding affinity for ERα (in words): concentrations up to 1000 nM; for RBAα % (relative binding affinity for ERα, of E2): calculated against E2 = 100; for RBAα/RBAβ: ratio of relative binding affinities ERα over ERβ
T1 construct: purchased PanVera Corporation (Madison, Wis.); host or cells: baculovirus-mediated expression system
T1 sequence (P03372 1-595): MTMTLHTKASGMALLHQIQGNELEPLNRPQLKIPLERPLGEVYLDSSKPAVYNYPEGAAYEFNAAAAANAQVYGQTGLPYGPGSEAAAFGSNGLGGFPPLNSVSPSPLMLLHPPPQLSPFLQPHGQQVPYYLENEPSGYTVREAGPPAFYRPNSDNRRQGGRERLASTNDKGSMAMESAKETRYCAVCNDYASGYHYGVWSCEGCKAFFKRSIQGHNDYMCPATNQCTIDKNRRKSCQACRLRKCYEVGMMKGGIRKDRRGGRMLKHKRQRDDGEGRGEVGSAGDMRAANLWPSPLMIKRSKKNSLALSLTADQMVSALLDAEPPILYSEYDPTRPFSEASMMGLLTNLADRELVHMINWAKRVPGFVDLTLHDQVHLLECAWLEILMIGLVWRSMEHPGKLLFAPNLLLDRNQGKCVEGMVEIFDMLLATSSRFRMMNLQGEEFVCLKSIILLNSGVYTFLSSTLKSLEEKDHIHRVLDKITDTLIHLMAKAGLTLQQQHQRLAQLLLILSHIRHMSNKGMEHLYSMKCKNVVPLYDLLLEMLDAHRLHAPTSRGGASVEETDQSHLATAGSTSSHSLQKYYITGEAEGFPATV
Description: (§1) The recombinant human ERα and ERβ proteins and bovine serum albumin (BSA) were obtained from PanVera Corporation (Madison, Wis.). According to the supplier, the recombinant human ERα and ERβ were produced in a baculovirus-mediated expression system, and they were soluble and functionally active, with post-translational modifications similar to those found in mammalian cells. See Reid et al., Human estrogen receptor-α: Regulation by synthesis, modification and degradation, Cell. Mol. Life.
(§2) The following buffer solutions were used in the ER binding assays, and they were prepared beforehand and stored at 4° C. The binding buffer consisted of 10% glycerol, 2 mM dithiothreitol, 1 mg/mL BSA and 10 mM Tris-HCl at pH 7.5. The ERα washing buffer contained 40 mM Tris-HCl and 100 mM KCl (pH 7.4), but the ERG washing buffer contained only 40 mM Tris-HCl (adjusted to pH 7.4). The 50% hydroxylapatite slurry was prepared first by vigorously mixing 10 g hydroxylapatite with 60 mL of the Tris-HCl solution (50 mM, pH 7.4). Hydroxylapatite was then allowed to settle for 20 minutes at room temperature, and the supernatant was decanted. The above procedures were repeated 10 times, and afterwards hydroxylapatite was kept in the 50 mM Tris-HCl solution overnight at 4° C. Hydroxylapatite slurry was then adjusted to an approximate final concentration of 50% (v/v) using the same Tris-HCl solution and stored at 4° C., and the slurry was stable for up to several months.
(§3) Note that all of the estrogens were initially dissolved in pure ethanol to a stock concentration of 1 mM, and then further diluted to 100 μM with 20% aqueous ethanol. […] Immediately before the addition of the ERα or ERβ protein, it was diluted in the binding buffer and mixed gently with repetitive pipettings. […] The incubation mixture was then mixed gently and thoroughly with repetitive pipettings. […] The binding mixture was incubated at room temperature for two hours. At the end of the incubation, 100 μL of the hydroxylapatite slurry was added to each tube and the tubes were incubated on ice for 15 minutes with 3 times of brief vortexing. An aliquot (1 mL) of the appropriate washing buffer was added, mixed, and centrifuged at 10,000 g for five minutes, and the supernatants were discarded. This wash step was repeated twice. Hydroxylapatite pellets were then resuspended in 200 μL ethanol (followed by another rinse with 200 μL ethanol), and then the content was transferred to scintillation vials (containing 4 mL of the scintillation fluid) for measurement of ^3H-radioactivity with a liquid scintillation counter (Packard Tri-CARB 2900 TR; Downers Grove, Ill.).
(§4) To calculate the specific binding (pmol/mL) of the human ERα or ERβ protein at each concentration point, the following equation was used: […]
(§5) When a lower radioligand concentration is used, the corresponding IC50 value will also be relatively lower, but when the radioligand concentration increases, the corresponding IC50 value will also increase. […] Since the RBA value is a parameter that is independent of the radioligand concentration used, we thus have placed more emphasis on the RBA values instead of the absolute IC50 values in interpreting the physiological meanings of the data from in vitro receptor competition assays.

recombinant human ERβ = molecular target: T2, recombinant human ERβ (Homo sapiens, UniProt Q92731); assay: ERβ binding assay: competition of [3H]E2 binding by competing estrogens; conditions: for binding affinity for ERβ (in words): concentrations up to 1000 nM; for RBAβ (%) (relative binding affinity for ERβ, of E2): calculated against E2 = 100
T2 construct: purchased PanVera Corporation (Madison, Wis.); host or cells: baculovirus-mediated expression system
T2 sequence (Q92731 whole entry): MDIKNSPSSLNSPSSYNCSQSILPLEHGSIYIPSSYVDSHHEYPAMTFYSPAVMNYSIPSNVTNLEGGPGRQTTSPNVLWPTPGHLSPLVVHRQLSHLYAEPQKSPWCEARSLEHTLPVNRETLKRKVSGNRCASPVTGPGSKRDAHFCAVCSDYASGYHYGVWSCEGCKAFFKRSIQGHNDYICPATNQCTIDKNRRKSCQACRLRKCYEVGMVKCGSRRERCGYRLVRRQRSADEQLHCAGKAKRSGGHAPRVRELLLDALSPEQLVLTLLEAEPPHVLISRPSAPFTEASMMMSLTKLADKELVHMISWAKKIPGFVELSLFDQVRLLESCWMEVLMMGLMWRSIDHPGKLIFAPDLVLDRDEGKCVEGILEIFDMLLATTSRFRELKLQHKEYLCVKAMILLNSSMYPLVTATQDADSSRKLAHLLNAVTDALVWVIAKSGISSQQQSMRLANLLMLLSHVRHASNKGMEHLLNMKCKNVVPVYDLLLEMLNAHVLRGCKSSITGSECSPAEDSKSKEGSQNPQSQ
Description: as §1, §2, §3, §4, §5

O=c1c(-c2ccc(O)cc2)coc2cc(O)cc(O)c12 [Genistein]
effectiveness as hormone replacement therapy (postmenopausal person): ineffective

C[C@]12CC[C@@H]3c4ccc(OS(=O)(=O)O)cc4CC[C@H]3[C@@H]1CC[C@@H]2O [E2-3-sulfate, Estradiol 3-sulfate]
binding affinity for ERα (in words) (recombinant human ERα): basically devoid of appreciable binding affinity
IC50 (recombinant human ERα; read-out: ERα IC50): > 1000 nM
binding affinity for ERβ (in words) (recombinant human ERβ): basically devoid of appreciable binding affinity
IC50 (recombinant human ERβ; read-out: ERβ IC50): > 1000 nM

Cc1cc(O)cc2c1[C@H]1CC[C@]3(C)[C@@H](O)CC[C@H]3[C@@H]1CC2 [1-Methyl-E2, 1-Methylestradiol]
RBAα % (relative binding affinity for ERα, of E2) (recombinant human ERα): 14%
RBAα/RBAβ (recombinant human ERα): 1.8
RBAα/RBAβ (recombinant human ERα; listed as 1-methylestradiol): about 1.8
IC50 (recombinant human ERα; read-out: ERα IC50): 79.4 nM
decrease of binding affinity for ERα compared to E2 (recombinant human ERα; relative to E2): approximately 90%
RBAβ (%) (relative binding affinity for ERβ, of E2) (recombinant human ERβ): 8%
IC50 (recombinant human ERβ; read-out: ERβ IC50): 112 nM
decrease of binding affinity for ERβ compared to E2 (recombinant human ERβ; relative to E2): approximately 90%

CC12CCC3c4cc(O)c(O)cc4CCC3C1CCC2=O (stereo not shown) [2-OH-E1, 2-Hydroxyestrone]
preference of binding affinity for ERα over ERβ (recombinant human ERα; ERα over ERβ): about ten-fold
RBAα % (relative binding affinity for ERα, of E2) (recombinant human ERα): 4%
RBAα/RBAβ (recombinant human ERα): 10
RBAα/RBAβ (recombinant human ERα; listed as 2-hydroxyestrone): about 10
IC50 (recombinant human ERα; read-out: ERα IC50): 316 nM
RBAβ (%) (relative binding affinity for ERβ, of E2) (recombinant human ERβ): 0.4%
IC50 (recombinant human ERβ; read-out: ERβ IC50): 2000 nM

CCOc1cc2c(cc1O)CCC1C2CCC2(C)C(O)CCC12 (stereo not shown) [2-Ethoxy-E2, 2-Ethoxyestradiol]
binding affinity for ERα (in words) (recombinant human ERα): weak binding affinity
IC50 (recombinant human ERα; read-out: ERα IC50): > 1000 nM
binding affinity for ERβ (in words) (recombinant human ERβ): weak binding affinity
IC50 (recombinant human ERβ; read-out: ERβ IC50): > 1000 nM

CC12CCC3c4ccc(O)c(N)c4CCC3C1CCC2=O (stereo not shown) [4-NH2-E1, 4-Aminoestrone]
RBAα % (relative binding affinity for ERα, of E2) (recombinant human ERα): 3%
binding affinity for ERα (in words) (recombinant human ERα): very weak binding affinities
IC50 (recombinant human ERα; read-out: ERα IC50): 355 nM
binding affinity for ERβ (in words) (recombinant human ERβ): very weak binding affinities
IC50 (recombinant human ERβ; read-out: ERβ IC50): > 1000 nM

COc1c(O)ccc2c1CCC1C2CCC2(C)C(O)CCC12 (stereo not shown) [4-MeO-E2, 4-Methoxyestradiol]
IC50 (recombinant human ERα): 708 nM
RBAα % (relative binding affinity for ERα, of E2) (recombinant human ERα): 2%
RBAα/RBAβ (recombinant human ERα): 2
RBAα/RBAβ (recombinant human ERα; listed as 4-methoxyestradiol): about 2
IC50 (recombinant human ERβ): 891 nM
RBAβ (%) (relative binding affinity for ERβ, of E2) (recombinant human ERβ): 1%

C[C@]12CC[C@@H]3c4ccc(O)cc4CC[C@H]3[C@@H]1[C@@H](O)[C@@H](O)[C@@H]2O [15α-OH-E3, 15α-Hydroxyestriol (Estetrol)]
RBAα % (relative binding affinity for ERα, of E2) (recombinant human ERα): 4%
RBAα/RBAβ (recombinant human ERα): 1.3
RBAα/RBAβ (recombinant human ERα; listed as estetrol): about 1.3
IC50 (recombinant human ERα; read-out: ERα IC50): 282 nM
RBAβ (%) (relative binding affinity for ERβ, of E2) (recombinant human ERβ): 3%
IC50 (recombinant human ERβ; read-out: ERβ IC50): 355 nM

COc1cc2c(cc1O)[C@H]1CC[C@]3(C)[C@@H](O)CC[C@H]3[C@@H]1CC2 [2-OH-3-MeO-E2, 2-Hydroxyestradiol 3-methyl ether]
binding affinity for ERα (in words) (recombinant human ERα): substantially weaker binding affinity
IC50 (recombinant human ERα; read-out: ERα IC50): > 1000 nM
binding affinity for ERβ (in words) (recombinant human ERβ): substantially weaker binding affinity
IC50 (recombinant human ERβ; read-out: ERβ IC50): > 1000 nM

C/C=C(/C(=C/C)c1ccc(O)cc1)c1ccc(O)cc1 [Dienestrol, reference compound]
RBAα % (relative binding affinity for ERα, of E2) (recombinant human ERα): 37%
RBAα/RBAβ (recombinant human ERα): 0.7
IC50 (recombinant human ERα; read-out: ERα IC50): 30.2 nM
RBAβ (%) (relative binding affinity for ERβ, of E2) (recombinant human ERβ): 56%
IC50 (recombinant human ERβ; read-out: ERβ IC50): 19.9 nM

C#C[C@]1(O)CC[C@H]2[C@@H]3CCc4cc(O)ccc4[C@H]3[C@@H](OC)C[C@@]21C [11β-MeO-EE2, 11β-Methoxyethynylestradiol]
RBAα % (relative binding affinity for ERα, of E2) (recombinant human ERα): 35%
RBAα/RBAβ (recombinant human ERα): 1.8
RBAα/RBAβ (recombinant human ERα; listed as 11β-methoxyethynyl estradiol): about 1.8
IC50 (recombinant human ERα; read-out: ERα IC50): 31.6 nM
RBAβ (%) (relative binding affinity for ERβ, of E2) (recombinant human ERβ): 20%
IC50 (recombinant human ERβ; read-out: ERβ IC50): 44.7 nM

C[C@]12CC[C@@H]3c4ccc(O)cc4C[C@@H](CCCCCCO)[C@H]3[C@@H]1CC[C@@H]2O [E2-7α-(CH2)6OH, 7α-(6-Hydroxyhexanyl)-17β-estradiol]
RBAα % (relative binding affinity for ERα, of E2) (recombinant human ERα): 27%
RBAα/RBAβ (recombinant human ERα): 0.7
IC50 (recombinant human ERα; read-out: ERα IC50): 41.8 nM
RBAβ (%) (relative binding affinity for ERβ, of E2) (recombinant human ERβ): 40%
IC50 (recombinant human ERβ; read-out: ERβ IC50): 22.3 nM

O=c1c(O)c(-c2cc(O)c(O)c(O)c2)oc2cc(O)cc(O)c12 [Myricetin, reference compound]
binding affinity for ERα (in words) (recombinant human ERα): no appreciable binding affinity
IC50 (recombinant human ERα; read-out: ERα IC50): > 1000 nM
binding affinity for ERβ (in words) (recombinant human ERβ): no appreciable binding affinity
IC50 (recombinant human ERβ; read-out: ERβ IC50): > 1000 nM

C[C@]12CC[C@@H]3c4cc(O)c(O)cc4CC[C@H]3[C@@H]1CC[C@@H]2O [2-OH-E2, 2-Hydroxyestradiol]
IC50 (recombinant human ERα): 50.1 nM
RBAα % (relative binding affinity for ERα, of E2) (recombinant human ERα): 22%
RBAα/RBAβ (recombinant human ERα): 0.6
IC50 (recombinant human ERβ): 25.1 nM
RBAβ (%) (relative binding affinity for ERβ, of E2) (recombinant human ERβ): 35%
